{
  "source": "paper PMC7051184",
  "about": "“C9orf72 arginine-rich dipeptide repeat proteins disrupt karyopherin-mediated nuclear import” (eLife, 2020)",
  "key": {"[1]": {"target": "importin β-mediated nuclear import of Rango (Homo sapiens, UniProt Q14974)", "sequence (Q14974 whole entry)": "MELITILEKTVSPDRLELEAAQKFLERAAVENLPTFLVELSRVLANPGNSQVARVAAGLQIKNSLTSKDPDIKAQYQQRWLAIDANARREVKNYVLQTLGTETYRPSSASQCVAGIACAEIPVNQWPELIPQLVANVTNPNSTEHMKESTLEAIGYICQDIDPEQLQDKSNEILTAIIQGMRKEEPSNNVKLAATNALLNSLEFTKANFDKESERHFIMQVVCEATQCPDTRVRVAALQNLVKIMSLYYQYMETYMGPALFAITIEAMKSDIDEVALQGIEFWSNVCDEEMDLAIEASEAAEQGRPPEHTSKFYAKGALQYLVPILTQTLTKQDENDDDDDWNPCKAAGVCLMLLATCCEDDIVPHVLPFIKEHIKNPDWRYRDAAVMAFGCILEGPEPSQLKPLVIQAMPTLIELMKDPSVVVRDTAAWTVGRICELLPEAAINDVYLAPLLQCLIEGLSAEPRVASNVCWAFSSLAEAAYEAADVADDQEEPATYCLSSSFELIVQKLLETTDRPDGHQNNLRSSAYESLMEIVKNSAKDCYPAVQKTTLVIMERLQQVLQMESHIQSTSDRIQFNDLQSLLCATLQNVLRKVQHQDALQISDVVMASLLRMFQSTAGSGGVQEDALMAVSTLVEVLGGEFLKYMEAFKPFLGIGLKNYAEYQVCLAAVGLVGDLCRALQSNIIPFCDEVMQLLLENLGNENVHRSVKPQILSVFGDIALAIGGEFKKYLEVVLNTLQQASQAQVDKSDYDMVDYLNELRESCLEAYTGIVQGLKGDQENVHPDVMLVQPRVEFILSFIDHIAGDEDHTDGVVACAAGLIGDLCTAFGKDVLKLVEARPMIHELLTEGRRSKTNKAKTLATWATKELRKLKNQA", "assay": "Permeabilized cell nuclear import assay, Rango, HeLa", "format": "cell-based"}, "[2]": {"test_system": "BSA", "assay": "Bead halo assay, biotinylated BSA-coated beads (non-specific control)", "format": "binding", "settings": "AF488-labeled", "method": "Purified WT importin β (pKW485) diluted to 10 µM in XB was combined with 10-molar excess of Alexa Fluor 647 NHS ester (ThermoFisher), using freshly-prepared 10 mM dye in anhydrous DMSO. After incubation on ice for 2 hr, the sample was dialyzed in PBS and concentrated on 30kD MWCO filter (Millipore Sigma) before storage. A similar protocol was used to label BSA with 10-molar excess Sulfo-NHS-LC-biotin (ThermoFisher), followed by dialysis in PBS.\n(§1) The bead halo assay was carried out as described with minor modifications ([Patel and Rexach, 2008]), using […] polystyrene beads coated with neutravidin (for biotinylated proteins) or glutathione (for GST-fusion proteins) (Spherotech, Lake Forest, IL). Beads were coated overnight at 4°C at saturating concentrations per manufacturers’ instructions and rinsed 2x in binding buffer (20 mM HEPES [pH 7.4], 150 mM KOAc, 2 mM Mg(OAc)2, 1 mM DTT, 0.1% Tween-20). Immediately prior to the assay, fluorescent bait proteins and beads were combined with 4x assay buffer (40 mM EDTA, 40 mg/ml BSA, 500 mM NaCl, and 0.2% Tween) to a total of 40 µL per well, in optical glass-bottom 96-well plates (Cellvis, Mountain View, CA). Reactions were allowed to equilibrate at room temperature for a minimum of 30 min prior to imaging at 100x on an LSM800 confocal microscope (Zeiss, Oberkochen, Germany). […]"}, "[3]": {"test_system": "FUS", "assay": "DPR aggregation assay and western blot, FUS", "format": "biochemical, human", "settings": "normalized to untreated HEK cells on the same membrane", "method": "(§2) Supernatant and pellet fractions (for all 5 DPRs, and control/buffer only) were prepared as in the nuclear transport assays, by adding 100 µM 10mers to 2.5 mg/ml HEK lysate in 100 µL TRB. Supernatants were boiled in Laemmli (BioRad) for 5 min. Pellets were boiled for 15 min followed by sonication in order to fully disperse aggregates for SDS-PAGE. Equal volumes of supernatant and pellet fractions were run on 4–12% Bolt Bis-Tris Plus gels (ThermoFisher), transferred to nitrocellulose membrane using an iBlot2 dry blotting system (ThermoFisher). Protein loading was analyzed by BLOT-Faststain (G-biosciences, St. Louis, MO), according to the manufacterers’ instructions. For immunodetection, membranes were blocked with 5% non-fat milk in TBST and probed by sequential incubation with the primary antibodies as detailed in the table below. Detection was by HRP-conjugated secondary antibodies/chemiluminescence using an ImageQuant LAS 4000 system (GE, Chicago, IL). To permit sequential probing of membranes without stripping, signals were quenched by incubation with prewarmed 30% H20_2 for 20 min ([Sennepin et al., 2009]). Band intensities were measured by ImageQuant software. For pellet vs. supernatant fractions, all were expressed as percent untreated control. For blots in Figure 1E, samples were run on 4–20% SDS PAGE minigels (ThermoFisher) and blotted to PVDF membranes (Immun-Blot PVDF, Bio-Rad) using the Bio-Rad TransBlot Turbo apparatus, and probed as above. The chemiluminescence signal was captured with a Bio-Rad ChemiDoc XRS+ digital imaging system."}, "[4]": {"test_system": "Nup100(1-610)", "format": "binding, S. cerevisiae", "settings": "AF488-labeled", "method": "(§3) The expression of GST- Nsp1(497-609) in BL21(DE3) cells grown in LB media was induced at OD600nm = 0.4–0.6, followed by incubation at 37°C for 3–5 hr. The GST-tagged S. cerevisiae pGEX-Nup100(1-307), Nup100(1-610), Nup116(348-458) and Nup116(348-458)F > A were expressed in T7 Shuffle cells (NEB) that were grown in Dynamite media ([Taylor et al., 2017]) until OD600nm = 0.9 before induction with IPTG at 37°C for 3 hr. All the GST-tagged Nup fragments were purified using glutathione-sepharose affinity chromatography, as described for the GST-GFP-NLS above, and dialyzed into PBS before storage.\n(§4) The bead halo assay was carried out as described with minor modifications ([Patel and Rexach, 2008]), using […] polystyrene beads coated with neutravidin (for biotinylated proteins) or glutathione (for GST-fusion proteins) (Spherotech, Lake Forest, IL). Beads were coated overnight at 4°C at saturating concentrations per manufacturers’ instructions and rinsed 2x in binding buffer (20 mM HEPES [pH 7.4], 150 mM KOAc, 2 mM Mg(OAc)2, 1 mM DTT, 0.1% Tween-20). Immediately prior to the assay, fluorescent bait proteins and beads were combined with 4x assay buffer (40 mM EDTA, 40 mg/ml BSA, 500 mM NaCl, and 0.2% Tween) to a total of 40 µL per well, in optical glass-bottom 96-well plates (Cellvis, Mountain View, CA). Reactions were allowed to equilibrate at room temperature for a minimum of 30 min prior to imaging at 100x on an LSM800 confocal microscope (Zeiss, Oberkochen, Germany). Intensity profiles comparing the maximum rim intensity to the background were plotted in ImageJ (NIH) by an investigator blinded to experimental conditions."}, "[5]": {"test_system": "Nup100(1-307)", "format": "binding, S. cerevisiae", "settings": "AF488-labeled", "method": "as §3, §4"}, "[6]": {"test_system": "DDX3X", "assay": "DPR aggregation assay and western blot, DDX3X", "format": "biochemical, human", "settings": "normalized to untreated HEK cells on the same membrane", "method": "as §2"}, "[7]": {"test_system": "Nup62", "assay": "DPR aggregation assay and western blot, Nup62", "format": "biochemical, human", "settings": "100 µM 10mer in 2.5 mg/ml HEK lysate, normalized to untreated HEK", "method": "as §2"}, "[8]": {"test_system": "Nup98", "assay": "DPR aggregation assay and western blot, Nup98", "format": "biochemical, human", "settings": "100 µM 10mer in 2.5 mg/ml HEK lysate, normalized to untreated HEK", "method": "as §2"}, "[9]": {"test_system": "Nsp1(497-609)", "assay": "Bead halo assay, GST-Nsp1(497-609) FxFG domain", "format": "binding, S. cerevisiae", "settings": "AF488-labeled", "method": "as §3\nas §1, with “CA).” for “CA). Reactions were allowed to equilibrate at room temperature for a minimum of 30 min prior to imaging at 100x on an LSM800 confocal microscope (Zeiss, Oberkochen, Germany).”"}, "[10]": {"test_system": "Matrin-3", "assay": "DPR aggregation assay and western blot, Matrin-3", "format": "biochemical, human", "settings": "normalized to untreated HEK cells on the same membrane", "method": "as §2"}, "[11]": {"assay": "Bead halo assay, bare neutravidin beads (non-specific control)", "settings": "AF488-labeled, 200 nM, binding buffer", "method": "as §4"}},
  "note": "Where a SMILES comes first, the peptide text is derived from it.",
  "data": [
    {"molecule": "GA10: Synthetic 10-mer GA dipeptide repeat with C-terminal lysine and cysteine (GAGAGAGAGAGAGAGAGAGAKC)", "values": [
      {"measurement": "NCT inhibition in permeabilized HeLa", "setting": "[1]", "value": "did not see NCT inhibition"}
    ]},
    {"molecule": "N=C(N)NCCC[C@H](NC(=O)[C@@H]1CCCN1C(=O)[C@H](CCCNC(=N)N)NC(=O)[C@@H]1CCCN1C(=O)[C@H](CCCNC(=N)N)NC(=O)[C@@H]1CCCN1C(=O)[C@H](CCCNC(=N)N)NC(=O)[C@@H]1CCCN1C(=O)[C@H](CCCNC(=N)N)NC(=O)[C@@H]1CCCN1C(=O)[C@H](CCCNC(=N)N)NC(=O)[C@@H]1CCCN1C(=O)[C@H](CCCNC(=N)N)NC(=O)[C@@H]1CCCN1C(=O)[C@H](CCCNC(=N)N)NC(=O)[C@@H]1CCCN1C(=O)[C@H](CCCNC(=N)N)NC(=O)[C@@H]1CCCN1C(=O)[C@H](CCCNC(=N)N)NC(=O)[C@@H]1CCCN1)C(=O)O", "note": "[PR10] (H-PRPRPRPRPRPRPRPRPRPR-OH; N-terminus and C-terminus assumed)", "values": [
      {"measurement": "Binding to BSA-coated beads", "setting": "[2]; 200 nM, binding buffer", "value": "modest non-specific binding"},
      {"measurement": "Nonspecific binding to control beads", "setting": "[2]; 1 mg/ml neuronal lysate added", "value": "nonspecific binding decreased"},
      {"measurement": "FUS band density, % control", "setting": "[3]; Pellet, Blot 1", "value": 65.8, "unit": "% control"},
      {"measurement": "FUS band density, % control", "setting": "[3]; Pellet, Blot 2", "value": 35.2, "unit": "% control"},
      {"measurement": "FUS band density, % control", "setting": "[3]; Supernatant, Blot 1", "value": 99.5, "unit": "% control"},
      {"measurement": "FUS band density, % control", "setting": "[3]; Supernatant, Blot 2", "value": 123.2, "unit": "% control"},
      {"measurement": "Binding to Nup100 GLFG-domain (halo intensity)", "setting": "[4]; binding buffer", "value": "modest selective binding"},
      {"measurement": "FG-binding with added unlabeled importin β", "setting": "[4]; + unlabeled importin β", "value": "FG-binding could be augmented"},
      {"measurement": "Binding to Nup100 GLFG-domain (halo intensity)", "setting": "[5]; binding buffer", "value": "modest selective binding"},
      {"measurement": "FG-binding with added unlabeled importin β", "setting": "[5]; + unlabeled importin β", "value": "FG-binding could be augmented"},
      {"measurement": "DDX3X band density, % control", "setting": "[6]; Pellet, Blot 1", "value": 156.6, "unit": "% control"},
      {"measurement": "DDX3X band density, % control", "setting": "[6]; Pellet, Blot 2", "value": 221.4, "unit": "% control"},
      {"measurement": "DDX3X band density, % control", "setting": "[6]; Supernatant, Blot 1", "value": 10.9, "unit": "% control"},
      {"measurement": "DDX3X band density, % control", "setting": "[6]; Supernatant, Blot 2", "value": 1.8, "unit": "% control"},
      {"measurement": "Nup62 band density, Pellet", "setting": "[7]; Blot 1", "value": 204.0, "unit": "% control"},
      {"measurement": "Nup62 band density, Supernatant", "setting": "[7]; Blot 1", "value": 154.3, "unit": "% control"},
      {"measurement": "Nup62 band density, Pellet", "setting": "[7]; Blot 2", "value": 227.1, "unit": "% control"},
      {"measurement": "Nup62 band density, Supernatant", "setting": "[7]; Blot 2", "value": 111.0, "unit": "% control"},
      {"measurement": "Nup98 band density, Pellet", "setting": "[8]; Blot 1", "value": 109.9, "unit": "% control"},
      {"measurement": "Nup98 band density, Supernatant", "setting": "[8]; Blot 1", "value": 57.2, "unit": "% control"},
      {"measurement": "Nup98 band density, Pellet", "setting": "[8]; Blot 2", "value": 150.1, "unit": "% control"},
      {"measurement": "Nup98 band density, Supernatant", "setting": "[8]; Blot 2", "value": 67.5, "unit": "% control"},
      {"measurement": "FG-binding with added unlabeled importin β", "setting": "[9]", "value": "FG-binding could be augmented"},
      {"measurement": "Matrin-3 band density, % control", "setting": "[10]; Pellet, Blot 1", "value": 407.8, "unit": "% control"},
      {"measurement": "Matrin-3 band density, % control", "setting": "[10]; Pellet, Blot 2", "value": 159.1, "unit": "% control"},
      {"measurement": "Matrin-3 band density, % control", "setting": "[10]; Supernatant, Blot 1", "value": 25.9, "unit": "% control"},
      {"measurement": "Matrin-3 band density, % control", "setting": "[10]; Supernatant, Blot 2", "value": 42.9, "unit": "% control"},
      {"measurement": "Binding to bare beads", "setting": "[11]", "value": "modest non-specific binding"}
    ]}
  ]
}
